ChEMBL document CHEMBL1145724, “Cyclic amine sulfonamides as linkers in the design and synthesis of novel human beta(3) adrenergic receptor agonists” (Bioorg Med Chem Lett, 2003)

Experiments:
[1] = biological target: T1, Beta-3 adrenergic receptor (Homo sapiens, UniProt P13945); experiment: Agonistic activity against cloned human beta3-AR (beta-3-adrenergic receptor) in CHO cells; type: functional, cell-based
Target sequence in this assay (P13945 whole entry): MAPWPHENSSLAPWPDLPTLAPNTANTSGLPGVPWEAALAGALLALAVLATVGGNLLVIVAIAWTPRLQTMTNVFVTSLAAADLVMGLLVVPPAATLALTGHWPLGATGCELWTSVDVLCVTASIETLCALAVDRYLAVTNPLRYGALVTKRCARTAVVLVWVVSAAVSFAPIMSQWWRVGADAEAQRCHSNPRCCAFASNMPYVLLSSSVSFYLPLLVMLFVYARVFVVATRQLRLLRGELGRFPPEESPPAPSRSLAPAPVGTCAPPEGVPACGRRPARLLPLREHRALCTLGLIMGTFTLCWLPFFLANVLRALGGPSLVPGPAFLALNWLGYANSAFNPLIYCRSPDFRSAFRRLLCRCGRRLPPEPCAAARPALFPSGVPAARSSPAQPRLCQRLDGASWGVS

[2] = biological target: T1, Beta-3 adrenergic receptor; experiment: Intrinsic activity against cloned human beta3-AR was measured as fractions of the maximal response
Target sequence in this assay (P13945 whole entry, looked up): as the sequence (P13945 whole entry) above

[3] = biological target: T2, Beta-1 adrenergic receptor (Homo sapiens, UniProt P08588); experiment: Agonistic activity against cloned human beta1-AR (beta-1-adrenergic receptor) in CHO cells; type: functional, cell-based
Target sequence in this assay (P08588 whole entry): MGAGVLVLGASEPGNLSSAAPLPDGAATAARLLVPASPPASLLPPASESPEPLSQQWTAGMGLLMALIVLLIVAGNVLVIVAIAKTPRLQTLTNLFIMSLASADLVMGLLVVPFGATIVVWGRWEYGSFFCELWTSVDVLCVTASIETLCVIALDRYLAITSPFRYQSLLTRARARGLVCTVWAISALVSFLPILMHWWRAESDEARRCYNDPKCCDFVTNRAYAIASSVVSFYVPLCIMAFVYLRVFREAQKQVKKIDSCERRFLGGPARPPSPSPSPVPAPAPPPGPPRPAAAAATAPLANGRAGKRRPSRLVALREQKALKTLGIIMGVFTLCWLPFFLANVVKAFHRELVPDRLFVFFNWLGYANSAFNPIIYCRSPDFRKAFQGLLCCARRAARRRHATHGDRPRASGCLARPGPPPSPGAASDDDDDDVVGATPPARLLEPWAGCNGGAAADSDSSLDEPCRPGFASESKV

[4] = biological target: T2, Beta-1 adrenergic receptor; experiment: Intrinsic activity against cloned human beta1-AR was measured as fractions of the maximal response
Target sequence in this assay (P08588 whole entry, looked up): as the sequence (P08588 whole entry) above

[5] = biological target: Beta-2 adrenergic receptor (Homo sapiens, UniProt P07550); experiment: Agonistic activity against cloned human […] (beta-2-adrenergic receptor) in CHO cells; type: functional, cell-based
Sequence of Beta-2 adrenergic receptor (P07550 whole entry): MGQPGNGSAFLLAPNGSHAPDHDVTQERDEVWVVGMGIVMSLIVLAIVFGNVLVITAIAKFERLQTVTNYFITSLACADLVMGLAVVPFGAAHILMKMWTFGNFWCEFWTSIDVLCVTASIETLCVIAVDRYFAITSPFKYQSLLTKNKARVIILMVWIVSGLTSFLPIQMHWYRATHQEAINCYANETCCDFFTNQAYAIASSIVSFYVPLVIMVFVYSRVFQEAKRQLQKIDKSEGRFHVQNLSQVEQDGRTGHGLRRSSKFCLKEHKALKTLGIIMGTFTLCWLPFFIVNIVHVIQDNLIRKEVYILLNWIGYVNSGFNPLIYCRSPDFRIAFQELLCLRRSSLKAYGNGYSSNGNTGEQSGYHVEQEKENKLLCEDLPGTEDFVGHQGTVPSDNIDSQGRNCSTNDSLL

Compound | EC50 [1] [nM] | Intrinsic activity [2] | EC50 [3] [nM] | Intrinsic activity [4] | EC50 [5] [nM]
CCC(C)(C)c1ccc(S(=O)(=O)N2CCC(NC[C@H](O)COc3cccc4[nH]c5ccccc5c34)CC2)cc1 | 920 | 1 | – | – | –
O=c1[nH]c2cccc(OC[C@@H](O)CNC3CCN(S(=O)(=O)c4cccc5nsnc45)CC3)c2[nH]1 | 850 | – | – | – | –
CCCCOc1ccc(S(=O)(=O)N2CC(NC[C@H](O)c3ccc(O)cc3)C2)cc1 | 30 | 0.82 | 1600 | 0.49 | 920
CCCCCCNC(=O)Nc1ccc(S(=O)(=O)N2CCC(NC[C@H](O)COc3cccc4[nH]c(=O)[nH]c34)CC2)cc1 | 36 | – | – | – | –
CCCCOc1ccc(S(=O)(=O)N2CCC(NC[C@H](O)c3ccc(O)c(NS(C)(=O)=O)c3)C2)cc1 (stereo not given in full) | 360 | 0.79 | – | – | –
COc1ccc(S(=O)(=O)N2CCC(NC[C@H](O)COc3cccc4[nH]c(O)nc34)CC2)cc1 | – | 0.72 | – | 0.32 | –
COc1ccc(S(=O)(=O)N2CCC(NC[C@H](O)COc3cccc4[nH]c(=O)[nH]c34)CC2)cc1 | 120 | – | > 100000 | – | > 100000
CCCCOc1ccc(S(=O)(=O)N2CC(NC[C@H](O)c3ccc(O)c(NS(C)(=O)=O)c3)C2)cc1 | 1100 | 0.78 | – | – | –
CCCCOc1ccc(S(=O)(=O)N2CCC(NC[C@H](O)COc3ccc(O)cc3)CC2)cc1 | > 2000 | – | – | – | –
COc1ccc(S(=O)(=O)N2CCC(NC[C@H](O)COc3cccc4[nH]c(=O)[nH]c34)CC2)cc1OC | 90 | – | > 100000 | – | > 100000
CCCCCCNC(=O)Nc1ccc(S(=O)(=O)N2CCC(NC[C@H](O)c3ccc(O)c(NS(C)(=O)=O)c3)CC2)cc1 | 5 | 0.82 | 12 | 0.66 | 920
CCCCOc1ccc(S(=O)(=O)N2CCC(NC[C@H](O)COc3cccc4[nH]c5ccccc5c34)C2)cc1 (stereo not given in full) | > 2000 | – | – | – | –
O=S(=O)(c1ccc2oc3ccccc3c2c1)N1CCC(NC[C@H](O)COc2cccc3[nH]c(O)nc23)CC1 | – | 0.64 | – | – | –
COc1ccc(S(=O)(=O)N2CCC(NC[C@H](O)COc3cccc4[nH]c5ccccc5c34)CC2)cc1OC | – | 1.2 | > 100000 | 0.14 | > 100000
COc1ccc(S(=O)(=O)N2CCC(NC[C@H](O)COc3cccc4[nH]c5ccccc5c34)CC2)cc1 | – | 0.88 | 100000 | 0.11 | > 100000
COc1ccc(S(=O)(=O)N2CCC(NC[C@H](O)COc3cccc4[nH]c(O)nc34)CC2)cc1OC | – | 0.87 | – | 0.33 | –
CCCCOc1ccc(S(=O)(=O)N2CC(NC[C@H](O)COc3cccc4[nH]c5ccccc5c34)C2)cc1 | > 2000 | – | – | – | –
CCCCCCNC(=O)Nc1ccc(S(=O)(=O)N2CCC(NC[C@H](O)COc3ccc(O)cc3)CC2)cc1 | > 2000 | – | – | – | –
O=c1[nH]c2cccc(OC[C@@H](O)CNC3CCN(S(=O)(=O)c4ccc5oc6ccccc6c5c4)CC3)c2[nH]1 | 70 | – | – | – | –
CS(=O)(=O)Nc1cc([C@@H](O)CNC2CCN(S(=O)(=O)c3ccc4oc5ccccc5c4c3)CC2)ccc1O | 120 | 0.88 | – | – | –
CCCCCCNC(=O)Nc1ccc(S(=O)(=O)N2CCC(NC[C@H](O)COc3cccc4[nH]c(O)nc34)CC2)cc1 | – | 0.74 | – | – | –
COc1ccc(S(=O)(=O)N2CCC(NC[C@H](O)COc3ccc(O)cc3)CC2)cc1 | 55 | 0.74 | 10300 | 0.46 | > 100000
O=S(=O)(c1cccc2nsnc12)N1CCC(NC[C@H](O)COc2cccc3[nH]c(O)nc23)CC1 | – | 0.75 | – | – | –
CCCCOc1ccc(S(=O)(=O)N2CCC(NC[C@H](O)COc3cccc4[nH]c5ccccc5c34)CC2)cc1 | – | 0.74 | > 100000 | 0.04 | > 100000
